These results are taken from PubChem BioAssay AID296 (DTP/NCI, 2004).

The test system of the assay is MX-1 breast xenograft, nude mice, tumor weight T/C. Put plainly: NCI In Vivo Anticancer Drug Screen. Data for tumor model Human Mammary Carcinoma MX-1 Xenograft (intrarenal inoculation) in NU/NU Swiss (nude) mice. The note with it: endpoint: mean tumor weight change, higher = larger tumour. The gist of the method: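 Read-out: treated (T) over vehicle control (C) ratio of survival or tumor size. Dosing in animals carrying the transplanted tumor.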

[1] abbreviates: dose: 37.5 mg/kg/injection, schedule: Q04DX003 (sc), vehicle: saline.
Setting [2] is: dose: 75.0 mg/kg/injection, schedule: Q04DX003 (sc), vehicle: saline.
Setting [3] is: dose: 150.0 mg/kg/injection, schedule: Q04DX003 (sc), vehicle: saline.
Where [4] appears, read: dose: 300.0 mg/kg/injection, schedule: Q04DX003 (sc), vehicle: saline.

Several values for one entry are separate records, joined by “and”; a condition that tells them apart may be missing. Equal entries are not always repeated. Results filed as inconclusive are left out.

`C1CCC2OCCOCCOC3CCCCC3OCCOCCOC2C1` (configuration not stated): the T/C is 62 % of control (dose: 9.38 mg/kg/injection, schedule: Q04DX003 (sc), vehicle: Klucel (hydroxypropylcellulose) (HPC)); 87 % of control (dose: 18.75 mg/kg/injection, schedule: Q04DX003 (sc), vehicle: Klucel (hydroxypropylcellulose) (HPC)); 64 % of control (dose: 37.5 mg/kg/injection, schedule: Q04DX003 (sc), vehicle: Klucel (hydroxypropylcellulose) (HPC)); 46 % of control (dose: 75.0 mg/kg/injection, schedule: Q04DX003 (sc), vehicle: Klucel (hydroxypropylcellulose) (HPC)).

Take `O=C(O)CC(=O)O.[NH-]C1CCCCC1[NH-].[Pt+2]` (configuration not stated): the T/C is 1 % of control and -16 % of control (dose: 20.0 mg/kg/injection, schedule: Q01DX010 (sc), vehicle: dextrose); -81 % of control and -78 % of control (dose: 40.0 mg/kg/injection, schedule: Q01DX010 (sc), vehicle: dextrose).

Turning to `CCCCN(CCCC)C(Cl)=Nc1ccccc1`, the T/C (dose: 800.0 mg/kg/injection, schedule: Q04DX003 (sc), vehicle: other) is 89 % of control and the T/C (dose: 1600.0 mg/kg/injection, schedule: Q04DX003 (sc), vehicle: other) was 124 % of control.

For the compound `CC(=O)OCC1OC(n2ncc(=O)[nH]c2=O)C(OC(C)=O)C1OC(C)=O` (configuration not stated), the T/C by setting is: (dose: 150.0 mg/kg/injection, schedule: Q04DX003 (sc), vehicle: suspension in saline) 67 % of control; (dose: 300.0 mg/kg/injection, schedule: Q04DX003 (sc), vehicle: suspension in saline) 112 % of control; (dose: 600.0 mg/kg/injection, schedule: Q04DX003 (sc), vehicle: suspension in saline) 78 % of control.

In the case of `N=C(N)Sc1cc(O)ccc1O`, the T/C was 96 % of control under setting [1], 106 % of control under setting [2], 79 % of control under setting [3] and 90 % of control under setting [4].

For `OCC1OC(n2cnc3c(Cl)ncnc32)C(O)C1O` (configuration not stated), the T/C reads like this: under setting [4], 74 % of control; (dose: 600.0 mg/kg/injection, schedule: Q04DX003 (sc), vehicle: saline) 84 % of control; (dose: 1200.0 mg/kg/injection, schedule: Q04DX003 (sc), vehicle: saline) 80 % of control.

Take `Cc1c(N)nc([C@H](CC(N)=O)NC[C@H](N)C(N)=O)nc1C(=O)N[C@H](C(=O)N[C@H](C)[C@@H](O)[C@H](C)C(=O)N[C@H](C(=O)NCCc1nc(-c2nc(C(=O)NCCC[S+](C)C)cs2)cs1)[C@@H](C)O)C(OC1OC(CO)C(O)C(O)C1OC1OC(CO)C(O)C(OC(N)=O)C1O)c1cnc[nH]1` (some centres not stated): the T/C (dose: 4.0 mg/kg/injection, schedule: Q01DX010 (ip), vehicle: saline) is 86 % of control; the T/C (dose: 6.25 mg/kg/injection, schedule: Q04DX003 (sc), vehicle: saline) is 93 % of control; the T/C (dose: 8.0 mg/kg/injection, schedule: Q01DX010 (ip), vehicle: saline) was 55 % of control; the T/C (dose: 8.0 mg/kg/injection, schedule: Q04DX003 (sc), vehicle: saline) is 87 % of control; the T/C (dose: 13.3 mg/kg/injection, schedule: Q04DX003 (sc), vehicle: saline) is 67 % of control; the T/C (dose: 13.33 mg/kg/injection, schedule: Q04DX003 (ip), vehicle: saline) was 101 % of control and 120 % of control. The T/C runs as follows: (dose: 13.33 mg/kg/injection, schedule: Q04DX003 (sc), vehicle: saline) 45 % of control; (dose: 16.0 mg/kg/injection, schedule: Q01DX010 (ip), vehicle: saline) 49 % of control; (dose: 16.0 mg/kg/injection, schedule: Q04DX003 (sc), vehicle: saline) 46 % of control; (dose: 25.0 mg/kg/injection, schedule: Q04DX003 (sc), vehicle: saline) 50 % of control; (dose: 26.65 mg/kg/injection, schedule: Q04DX003 (ip), vehicle: saline) 71 % of control; (dose: 26.66 mg/kg/injection, schedule: Q04DX003 (ip), vehicle: saline) 89 % of control. Also, the T/C by setting is: (dose: 32.0 mg/kg/injection, schedule: Q01DX010 (ip), vehicle: saline) 53 % of control; (dose: 32.0 mg/kg/injection, schedule: Q04DX003 (sc), vehicle: saline) 15 % of control; under setting [1], 80 % of control; (dose: 50.0 mg/kg/injection, schedule: Q04DX003 (sc), vehicle: saline) 46 % of control; (dose: 53.3 mg/kg/injection, schedule: Q04DX003 (ip), vehicle: saline) 63 % of control; (dose: 53.3 mg/kg/injection, schedule: Q04DX003 (sc), vehicle: saline) 49 % of control. Also, the T/C was 59 % of control (dose: 53.33 mg/kg/injection, schedule: Q04DX003 (ip), vehicle: saline); 106 % of control (dose: 53.33 mg/kg/injection, schedule: Q04DX003 (sc), vehicle: saline); 30 % of control under setting [2]; 88 % of control (dose: 106.6 mg/kg/injection, schedule: Q04DX003 (ip), vehicle: saline); 51 % of control (dose: 106.6 mg/kg/injection, schedule: Q04DX003 (sc), vehicle: saline); 64 % of control (dose: 106.66 mg/kg/injection, schedule: Q04DX003 (sc), vehicle: saline). In addition, the T/C under setting [3] was 17 % of control.

Turning to `OC1CCCC2CCCNC12` (configuration not stated), the T/C (dose: 37.5 mg/kg/injection, schedule: Q04DX003 (sc), vehicle: saline with Tween-80) was 76 % of control and the T/C (dose: 75.0 mg/kg/injection, schedule: Q04DX003 (sc), vehicle: saline with Tween-80) is 85 % of control.

Regarding `CC(=O)C(O)N1C(=O)C=CC1=O` (configuration not stated), the T/C (dose: 2.5 mg/kg/injection, schedule: Q01DX010 (sc), vehicle: saline) was 157 % of control; the T/C (dose: 5.0 mg/kg/injection, schedule: Q01DX010 (sc), vehicle: saline) was 117 % of control; the T/C (dose: 10.0 mg/kg/injection, schedule: Q01DX010 (sc), vehicle: saline) is 159 % of control.

On to `ClCCCCCCCCCCc1ccccc1`, for which the T/C (dose: 100.0 mg/kg/injection, schedule: Q01DX010 (sc), vehicle: Klucel (hydroxypropylcellulose) (HPC)) was 89 % of control; the T/C (dose: 200.0 mg/kg/injection, schedule: Q01DX010 (sc), vehicle: Klucel (hydroxypropylcellulose) (HPC)) is 44 % of control; the T/C (dose: 400.0 mg/kg/injection, schedule: Q01DX010 (sc), vehicle: Klucel (hydroxypropylcellulose) (HPC)) was 116 % of control; the T/C (dose: 800.0 mg/kg/injection, schedule: Q01DX010 (sc), vehicle: Klucel (hydroxypropylcellulose) (HPC)) was 93 % of control.

Consider `COc1cc2c(c(OC)c1OC)-c1ccc(OC)c(=O)cc1[C@@H](NC(C)=O)CC2`, for which the T/C reads like this: (dose: 0.25 mg/kg/injection, schedule: Q01DX010 (sc), vehicle: saline) 94 % of control; (dose: 0.5 mg/kg/injection, schedule: Q01DX010 (sc), vehicle: saline) 30 % of control.

In the case of `CN1c2c(nc(N)[nH]c2=O)NCC1CCNc1ccc(C(=O)NC(CCC(=O)O)C(=O)O)cc1` (configuration not stated), the T/C is, setting by setting: (dose: 100.0 mg/kg/injection, schedule: Q01DX010 (sc), vehicle: saline) 83 % of control; (dose: 100.0 mg/kg/injection, schedule: Q01DX010 (sc), vehicle: suspension in saline) 60 % of control; (dose: 200.0 mg/kg/injection, schedule: Q01DX010 (sc), vehicle: saline) 76 % of control; (dose: 400.0 mg/kg/injection, schedule: Q01DX010 (sc), vehicle: saline) 81 % of control; (dose: 400.0 mg/kg/injection, schedule: Q01DX010 (sc), vehicle: suspension in saline) 25 % of control; (dose: 800.0 mg/kg/injection, schedule: Q01DX010 (sc), vehicle: saline) 62 % of control.

Regarding `CC(/C=C/c1ccccc1)=Nc1ccccc1`, the T/C by setting is: (dose: 150.0 mg/kg/injection, schedule: Q04DX003 (sc), vehicle: saline with Tween-80) 71 % of control; (dose: 300.0 mg/kg/injection, schedule: Q04DX003 (sc), vehicle: saline with Tween-80) 83 % of control; (dose: 600.0 mg/kg/injection, schedule: Q04DX003 (sc), vehicle: saline with Tween-80) 69 % of control; (dose: 1200.0 mg/kg/injection, schedule: Q04DX003 (sc), vehicle: saline with Tween-80) 93 % of control.

`C=Cc1cnc([N+](=O)[O-])n1C`: the T/C was 72 % of control (dose: 150.0 mg/kg/injection, schedule: Q04DX003 (sc), vehicle: Klucel (hydroxypropylcellulose) (HPC)); 78 % of control (dose: 300.0 mg/kg/injection, schedule: Q04DX003 (sc), vehicle: Klucel (hydroxypropylcellulose) (HPC)); 54 % of control (dose: 600.0 mg/kg/injection, schedule: Q04DX003 (sc), vehicle: Klucel (hydroxypropylcellulose) (HPC)).
